By Ki is commonly meant the equilibrium dissociation constant of an inhibitor or competing ligand from its target.

Eight compounds from patent US20240190889A1, “NEW CYCLOPENTA-THIENO-DIAZEPINE DERIVATIVES AS GABA A GAMMA1 POSITIVE ALLOSTERIC MODULATORS” (Hoffmann-La Roche Inc., priority 2021, published 2024) can be followed below.

The target of experiment [1] is human GABAA α1β3γ2 receptor (Homo sapiens (Human), UniProt P14867+P18507). The experiment can be described thus: Radioligand binding assay, competition for [3H]Flumazenil, γ2-containing GABAA subtypes. The note with it: for LogSel: Log[Ki α1β3γ2 (nM)/Ki α2β2γ1 (nM)]; for γ2/γ1 Selectivity Ratio: Ki α1β3γ2 (nM)/Ki α2β2γ1 (nM). On the procedure:
Membrane Preparation and Binding Assay for γ2-containing GABAA Subtypes
The affinity of compounds at GABAA γ2 subunit-containing receptors was measured by competition for [^3H]Flumazenil (81.1 Ci/mmol; Roche) binding to HEK293F cells expressing human (transiently transfected) receptors of composition α1β3γ2.
Harvested pellets from HEK293F cells expressing the different GABAA γ2 receptor subtypes were resuspended in Mannitol Buffer pH 7,2-7,4 and processed as described above for the cells expressing the GABAA γ1 subunit-containing receptors.
Assays were incubated to equilibrium for 1 hour at 4° C, and harvested onto GF/C uni-filters (Packard) by filtration using a Packard harvester and washing with ice-cold wash buffer (50 mM Tris; pH 7.5). After anhydrousing, filter-retained radioactivity was detected by liquid scintillation counting. Ki values were calculated using Excel-Fit (Microsoft) and are the means of two determinations.

For experiment [2], the target named is human GABAA α5β2γ1 receptor (Homo sapiens (Human), UniProt P31644+Q8N1C3). In words: Radioligand binding assay, competition for [3H]RO7239181, γ1-containing GABAA subtypes. Particulars: membranes from HEK293F cells, mean of two determinations. As to the method:
(§1) Membrane Preparation and Binding Assay for γ1-containing GABAA Subtypes
The affinity of compounds at GABAA γ1 subunit-containing receptors was measured by competition for [^3H]RO7239181 (67.3 Ci/mmol: Roche) binding to membranes from HEK293F cells (ThermoFisher R79007) expressing human (transiently transfected) receptors of composition α5β2γ1, α2β2γ1, α1β2γ1. For better protein expression of the α2 subunit-containing receptors, the 28 amino acid long signal peptide (Metl to Ala28) of the human GABAA α2 subunit was substituted by the 31 amino acid long signal peptide (Met1 to Ser31) of human GABAA α5 subunit.
(§2) Harvested pellets from HEK293F cells expressing the different GABAA receptor subtypes were resuspended in Mannitol Buffer pH 7.2-7.4 (Mannitol 0.29 M, Tricthylamine 10 mM. Acetic acid 10 mM. EDTA 1 mM plus protease inhibitors (20 tablets Complete. Roche Diagnostics Cat. No. 05 056 489 001 per liter)), washed two times and then resuspended at 1:10 to 1:15 dilution in the same buffer. Cell disruption was performed by stirring the suspension in a Parr vessel #4637 at 435 psi for 15 minutes, and then the suspensions were centrifuged at 1000×g for 15 minutes at 4° C. (Beckman Avanti J-HC: rotor JS-4.2). The supernatant (S1) was transferred in a 21 Schott flask and the pellet (P1) was resuspended with Mannitol Buffer up to 175 ml. The resuspended pellet was transferred into a 250 ml Corning centrifugal beaker and centrifuged at 1500 ×g for 10 minutes at 4° C. (Beckman Avanti J-HC: rotor JS-4.2). The supernatant (S1) was then transferred in the 21 Schott flask and the pellet was discarded. The supernatants (S1) were centrifuged in 500ml Beckman polypropylene centrifugal beaker at 15 000×g for 30 minutes at 4° C. (Beckman Avanti J-20 XP; rotor JLA-10.500). The pellet (P2) was resuspended with Mannitol Buffer 1:1 and frozen at −80° C. The supernatant (S2) was centrifuged in 100 ml Beckman polypropylene centrifugal tubes at 48000×g for 50 minutes at 4 °C (Beckman Avanti J-20 XP: rotor JA-18). The supernatant (S3) was discarded and the pellet (P3) was resuspended with 1:1 Mannitol Buffer. The P2 and P3 protein concentration was determined with the BIORAD Standard assay method with bovine serum albumin as standard and measured on the NANO-Drop 1000. The membrane suspension was aliquots (500μl per tube) and stored at −80° C. until required.
(§3) Membrane homogenates were resuspended and polytronised (Polytron PT1200E Kinematica AG) in Potassium Phosphate 10 mM, KCl 100 mM binding buffer at pH 7.4 to a final assay concentration determined with a previous experiment.
(§4) Radioligand binding assays were carried out in a volume of 200 μL (96-well plates) which contained 100 μL of cell membranes. [^3H]RO7239181 at a concentration of 1.5 nM (α5β2γ1) or 20-30 nM (α1β2γ1, α2β2γ1) and the test compound in the range of [0.3-10000]33 10^−9 M. Nonspecific binding was defined by 10×10^6 (α5β2γ1) and 30×10^6 M RO7239181 and typically represented less than 5% (α5β2γ1) and less than 20% (α1β2γ1, α2β2γ1) of the total binding. Assays were incubated to equilibrium for 1 hour at 4° C. and then, membranes were filtered onto unifilter (96-well white microplate with bonded GF/C filters preincubated 20-50 minutes in 0.3% Polyethylenimine) with a Filtermate 196 harvester (Packard BioScience) and washed 4 times with cold Potassium Phosphate 10 mM pH 7.4. KCl 100 mM binding buffer. After anhydrousing, filter-retained radioactivity was detected by liquid scintillation counting. Ki values were calculated using Excel-Fit (Microsoft) and are the means of two determinations.
Representative test results, obtained by the above described assay measuring binding affinity to HEK293 cells expressing human (h) receptors, are shown in the Table 1.

The target in experiment [3] is human GABAA α2β2γ1 receptor (Homo sapiens (Human), UniProt P47869+Q8N1C3). The experiment is described as above. On the procedure:
as §1
(§5) The affinity of compounds at GABAA γ1 subunit-containing receptors was measured by competition for [^3H]RO7239181 (67.3 Ci/mmol: Roche) binding to membranes from HEK293F cells (ThermoFisher R79007) expressing human (transiently transfected) receptors of composition α5β2γ1, α2β2γ1, α1β2γ1.
as §2, §3
as §4, with “[^3H]RO7239181 at a concentration of 1.5 nM (α5β2γ1) or 20-30 nM (α1β2γ1, α2β2γ1) and the test compound in the range of [0.3-10000]33 10^−9 M. Nonspecific binding was defined by 10×10^6 (α5β2γ1) and 30×10^6 M RO7239181 and typically represented less than 5% (α5β2γ1) and less than 20% (α1β2γ1, α2β2γ1) of the total binding.” left out

Experiment [4] deals with h-GABA-A α2β2γ1 receptor expressed in Xenopus laevis oocytes (Homo sapiens (Human), UniProt P47869+Q8N1C3). The experiment can be described thus: Two-electrode voltage clamp electrophysiology in Xenopus oocytes expressing GABAA receptors. The format is cell-based. Particulars: reference PAMs, GABA EC20. From the text: Functional Expression of GABAA Receptors:
Xenopus Oocytes Preparation
Xenopus laevis oocytes at maturation stages V-VI were used for the expression of cloned mRNA encoding GABAA receptor subunits. Oocytes ready for RNA micro-injection were bought from Ecocyte, Castrop-Rauxel, Germany and stored in modified Barth's medium (composition in mM: NaCl 88, KCl 1, NaHCO3 2.4, HEPES 10, MgSO4 0.82, CaNO3 0.33, CaCl2 0.33, pH=7.5) at 20 C. until the experiment.
Xenopus Oocytes Microinjection
Oocytes were plated in 96-well plates for microinjection using the Roboinject automated instrument (MultiChannelSystems, Reutlingen, Germany). Approximately 50 nL of an aqueous solution containing the RNA transcripts for the subunits of the desired GABAA receptor subtype was injected into each oocyte. […] Oocytes were kept in modified Barth's medium (composition in mM: NaCl 88, KCl 1, NaHCO3 […], HEPES 10, MgSO4 0.82, CaNO3 0.33, CaCl2 0.33, pH=7.5) at 20° C. until the experiment.
Electrophysiological experiments were performed using the Roboocyte instrument (MultiChannelSystems, Reutlingen, Germany) on days 3 to 5 after the micro-injection of mRNA. During the experiment the oocytes were constantly superfused by a solution containing (in mM) NaCl 90, KCl 1, HEPES 5, MgCl: 1, CaCl, 1 (pH 7.4). Oocytes were impaled by two glass microelectrodes (resistance: 0.5-0.8 MS2) which were filled with a solution containing KCl 1M +K-acetate 1.5 M and voltage-clamped to −80 mV. The recordings were performed at room temperature using the Roboocyte two-electrode voltage clamp system (Multichannelsystem). After an initial equilibration period of 1.5 min GABA was added for 1.5 min at a concentration evoking approximately 20% of a maximal current response (EC20). After another rest interval of 2.5 min GABA was again added evoking a response of similar amplitude and shape. […] Current traces were recorded at a digitization rate of 10 Hz during and shortly before and after the GABA application.
Each compound and concentration was tested on at least 3 oocytes. Different oocytes were used for different compound concentrations.
For the analysis, the digitized current traces of the first and second GABA response were superimposed and, if necessary, rescaled to equal maximal amplitudes. The ratio between the two responses during the time interval of test compound application was calculated point by point. The extremum of the resulting “ratio trace” was taken as the efficacy (“Fold increase”) of the compound expressed as “% modulation of GABA EC” (100* (Fold increase-1)).
A general note: Two-electrode voltage clamp holds a large cell at a set potential and records current.

For experiment [5], the target named is human GABAA α1β2γ1 receptor (Homo sapiens (Human), UniProt P14867+Q8N1C3). The experiment can be described thus: Radioligand binding assay, competition for [3H]RO7239181, γ1-containing GABAA subtypes. As to the method:
as §1, §5, §2, §3
as §4, with “[^3H]RO7239181 at a concentration of 1.5 nM (α5β2γ1) or 20-30 nM (α1β2γ1, α2β2γ1) and the test compound in the range of [0.3-10000]33 10^−9 M. Nonspecific binding was defined by 10×10^6 (α5β2γ1) and 30×10^6 M RO7239181 and typically represented less than 5% (α5β2γ1) and less than 20% (α1β2γ1, α2β2γ1) of the total binding.” left out

Read-outs that look alike come from different tables or passages of the source.

With `C[C@@H]1N=C(c2c(F)cccc2F)c2c(sc3c2C[C@H](C(F)F)C3)-n2c(CO)cnc21` [Example 22, [(7S,13S)-13-(difluoromethyl)-9-(2,6-difluorophenyl)-7-methyl-16-thia-2,5,8-triazatetracyclo [8.6.0.02,6.011,15]hexadeca-1(10),3,5,8,11(15)-pentaen-3-yl]methanol], the Ki in experiment [1] came to 2510 nM; in experiment [2], 44.3 nM; in experiment [3], 10.2 nM; in experiment [3] (read-out: Ki h-GABAA α2β2γ1, membranes from HEK293F cells, [3H]RO7239181 20-30 nM, mean of two determinations), 10.2 nM. Also, the LogSel in experiment [1] is on record as 1.75.
As for `Cc1ncc2n1-c1ccc(Cl)cc1C(c1ccccc1F)=NC2` [Midazolam, reference compound], in experiment [1], the “γ2/γ1 Selectivity Ratio” value is 0.0068 and the LogSel is −2.2. In experiment [4], the “potentiation of the GABA-induced current in α2β2γ1 GABAA receptor subtype expressing oocytes” value (from here on “potentiation of the GABA-induced current”) is given as approximately 60%.
`CN1C(=O)CN=C(c2ccccc2F)c2cc([N+](=O)[O-])ccc21` [Flunitrazepam, reference compound]: the “potentiation of the GABA-induced current” value in experiment [4] is listed as approximately 60%.
Turning to `Cc1nnc2n1-c1ccc(Cl)cc1C(c1ccccc1Cl)=NC2` [Triazolam, reference compound], the LogSel in experiment [1] is recorded as −1.5. For the same compound, the “potentiation of the GABA-induced current” value in experiment [4] is given as approximately 60%.
Take `Cc1nnc2n1-c1sc3c(c1C(c1c(F)cccc1F)=N[C@H]2C)CCC3` [RE-C, (7S)-9-(2,6-difluorophenyl)-3,7-dimethyl-16-thia-2,4,5,8-tetrazatetracyclo [8.6.0.02,6.011,15]hexadeca-1(10),3,5,8,11(15)-pentaene, reference compound]: the Ki in experiment [1] came out at 17.2 nM; in experiment [5] it was 2.59 nM; in experiment [3], 20.4 nM. In experiment [1], the “γ2/γ1 Selectivity Ratio” value is listed as 0.84. Further, the LogSel in experiment [1] is listed as −0.07.
For the compound `Cc1nnc2n1-c1sc3c(c1C(c1ccccc1Cl)=NC2)CCC3` [RE-A, reference compound], in experiment [1], the affinity, expressed as Ki, was 6.6 nM; the “γ2/γ1 Selectivity Ratio” value came out at 0.38; the LogSel was −0.42. Further, the affinity in experiment [3] corresponds to a Ki of 17.5 nM.
Take `CCOC(=O)C1Cc2sc3c(c2C1)C(c1ccccc1Cl)=NCc1nnc(C)n1-3` (centres unmarked) [RE-B, reference compound]: in experiment [1] (HEK293F cell membranes, [3H]Flumazenil 1 nM, mean of two determinations, read-out: Ki h-GABAA α1β3γ2), the Ki was found to be 1220 nM. In addition, in experiment [1], the “γ2/γ1 Selectivity Ratio” value stood at 1.66 and the LogSel is 0.22. Moreover, the affinity in experiment [3], expressed as Ki, was 734 nM.
As to `Cc1nnc2n1-c1ccc(Cl)cc1C(c1ccccc1)=NC2` [Alprazolam, reference compound], in experiment [1], the “γ2/γ1 Selectivity Ratio” value is given as 0.0050 and the LogSel was −2.3.
